Results published in patent US8003695B2 (Chroma Therapeutics Ltd., priority 2006, dated 2011).

Target: T1, IKBKB (IKKβ) (Homo sapiens, UniProt O14920)
T1 construct: purchased Invitrogen (Paisley, UK)
T1 sequence (O14920 1-756): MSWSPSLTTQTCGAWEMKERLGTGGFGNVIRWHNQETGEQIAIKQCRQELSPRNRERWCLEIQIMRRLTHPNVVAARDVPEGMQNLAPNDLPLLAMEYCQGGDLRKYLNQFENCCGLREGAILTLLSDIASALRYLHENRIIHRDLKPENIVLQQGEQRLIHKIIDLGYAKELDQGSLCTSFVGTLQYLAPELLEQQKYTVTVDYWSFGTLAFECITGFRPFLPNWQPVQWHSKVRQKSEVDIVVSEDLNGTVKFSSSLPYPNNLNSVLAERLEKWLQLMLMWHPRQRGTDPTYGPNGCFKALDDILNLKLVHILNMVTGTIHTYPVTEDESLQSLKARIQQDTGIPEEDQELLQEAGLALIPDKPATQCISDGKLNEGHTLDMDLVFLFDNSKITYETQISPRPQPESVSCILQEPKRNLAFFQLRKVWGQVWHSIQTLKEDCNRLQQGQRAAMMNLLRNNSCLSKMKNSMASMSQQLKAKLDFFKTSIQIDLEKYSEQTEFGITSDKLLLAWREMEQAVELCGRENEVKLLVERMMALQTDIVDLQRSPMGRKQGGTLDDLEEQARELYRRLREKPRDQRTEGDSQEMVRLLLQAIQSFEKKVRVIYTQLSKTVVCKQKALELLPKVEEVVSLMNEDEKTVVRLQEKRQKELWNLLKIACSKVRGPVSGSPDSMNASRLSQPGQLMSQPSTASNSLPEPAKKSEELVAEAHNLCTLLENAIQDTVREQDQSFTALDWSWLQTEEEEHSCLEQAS
Experiment: IKKβ Enzyme Assay (Z'-LYTE, Invitrogen)
Type: biochemical
Conditions: ATP at or close to Km; read-out: Inhibitor activity versus IKKβ
Method: The ability of compounds to inhibit IKKβ kinase activity was measured in an assay performed by Invitrogen (Paisley, UK). The Z′-LYTE™ biochemical assay employs a fluorescence-based, coupled-enzyme format and is based on the differential sensitivity of phosphorylated and non-phosphorylated peptides to proteolytic cleavage. The peptide substrate is labelled with two fluorophores—one at each end—that make up a FRET pair. In the primary reaction, the kinase transfers the gamma-phosphate of ATP to a single serine or threonine residue in a synthetic FRET-peptide. In the secondary reaction, a site-specific protease recognizes and cleaves non-phosphorylated FRET-peptides. Phosphorylation of FRET-peptides suppresses cleavage by the Development Reagent. Cleavage disrupts FRET between the donor (i.e., coumarin) and acceptor (i.e. fluorescein) fluorophores on the FRET-peptide, whereas uncleaved, phosphorylated FRET-peptides maintain FRET. A […] method, which calculates the ratio (the Emission Ratio) of donor emission to acceptor emission after excitation of the donor fluorophore at 400 nm, is used to quantitate reaction progress.
The final 10 μL Kinase Reaction consists of 0.9-8.0 ng IKBKB (IKKβ), 2 μM Ser/Thr 05 Peptide and ATP in 50 mM HEPES pH 7.5, 0.01% BRIJ-35, 10 mM MgCl2, 1 mM EGTA. The assay is performed at an ATP concentration at, or close to the Km. After the 60 minute Kinase Reaction incubation at room temperature, 5 μL of a 1:128 dilution of Development Reagent is added. The assay plate is incubated for a further 60 minutes at room temperature and read on a fluorescence plate reader.
Duplicate data points are generated from a ⅓ log dilution series of a stock solution of test compound in DMSO. Nine dilutions steps are made from a top concentration of 10 μM, and a ‘no compound’ blank is included. Data is collected and analysed using XLfit software from IDBS. The dose response curve is curve fitted to model number 205 (sigmoidal dose-response model). From the curve generated, the concentration giving 50% inhibition is determined and reported.

Compound | IC50
Cc1cc(-c2cc(C(N)=O)c(NC(N)=O)s2)ccc1/C=C/CN[C@@H](CC(C)C)C(=O)OC1CCCC1 [Example 30, Cyclopentyl N-[(2E)-3-{4-[4-carbamoyl-5-(carbamoylamino)thiophen-2-yl]-2-methylphenyl}prop-2-en-1-yl]-L-leucinate] | 1 to 5 µM
CC(C)C[C@H](NC/C=C/c1ccc(-c2cc(C(N)=O)c(NC(N)=O)s2)c(Cl)c1)C(=O)OC1CCCC1 [Example 35, Cyclopentyl N-[(2E)-3-{4-[4-carbamoyl-5-(carbamoylamino)thiophen-2-yl]-3-chlorophenyl}prop-2-en-1-yl]-L-leucinate] | 1 to 5 µM
CC(C)C[C@H](NCCc1ccc(-c2cc(C(N)=O)c(NC(N)=O)s2)cc1)C(=O)OC1CCCC1 [Example 16, Cyclopentyl N-(2-{4-[4-carbamoyl-5-(carbamoylamino)-2-thienyl]phenyl}ethyl)-L-leucinate] | 1 to 5 µM
CC(C)C[C@H](NC/C=C/c1ccc(-c2cc(C(N)=O)c(NC(N)=O)s2)c(C(F)(F)F)c1)C(=O)O [Example 79, N-[(2E)-3-{4-[4-carbamoyl-5-(carbamoylamino)thiophen-2-yl]-3-(trifluoromethyl)phenyl}prop-2-en-1-yl]-L-leucine] | 1 to 5 µM
CC(C)C[C@H](NCCc1cc(-c2cc(C(N)=O)c(NC(N)=O)s2)ccc1F)C(=O)O [Example 90, N-(2-{5-[4-carbamoyl-5-(carbamoylamino)thiophen-2-yl]-2-fluorophenyl}ethyl)-L-leucine] | < 1 µM
CC(C)C[C@H](NCc1ccc(-c2cc(C(N)=O)c(NC(N)=O)s2)cc1)C(=O)O [Example 51, N-{4-[4-Carbamoyl-5-(carbamoylamino)-2-thienyl]benzyl}-L-leucine] | < 1 µM
NC(=O)Nc1sc(-c2ccc(/C=C/CN[C@H](C(=O)O)C3CCCCC3)cc2)cc1C(N)=O [Example 83, (2S)-{[(2E)-3-{4-[4-carbamoyl-5-(carbamoylamino)thiophen-2-yl]phenyl}prop-2-en-1-yl]amino}(cyclohexyl)ethanoic acid] | < 1 µM
Cc1cc(-c2cc(C(N)=O)c(NC(N)=O)s2)ccc1/C=C/CN[C@@H](CC(C)C)C(=O)O [Example 70, N-[(2E)-3-{4-[4-carbamoyl-5-(carbamoylamino)thiophen-2-yl]-2-methylphenyl}prop-2-en-1-yl]-L-leucine] | < 1 µM
NC(=O)Nc1sc(-c2ccc(CN[C@@H](Cc3ccccc3)C(=O)O)cc2)cc1C(N)=O [Example 52, N-{-4-[4-Carbamoyl-5-(carbamoylamino)-2-thienyl]benzyl}-L-phenylalanine] | < 1 µM
CC(C)C[C@H](NCCc1ccc(-c2cc(C(N)=O)c(NC(N)=O)s2)c(Cl)c1)C(=O)O [Example 64, N-(2-{-4-[4-Carbamoyl-5-(carbamoylamino)-2-thienyl]-3-chlorophenyl}ethyl)-L-leucine] | < 1 µM
CC(C)C[C@H](NCc1ccc(-c2cc(C(N)=O)c(NC(N)=O)s2)c(Cl)c1)C(=O)O [Example 55, N{4-[4-carbamoyl-5-(carbamoylamino)-2-thienyl]-3-chlorobenzyl}-L-leucine] | < 1 µM

Further lines, results first:

IC50 | Compound
< 1 µM | CC(C)C[C@H](NC/C=C/c1ccc(-c2cc(C(N)=O)c(NC(N)=O)s2)c(F)c1)C(=O)OC1CCCC1 [Example 34, Cyclopentyl N-[(2E)-3-{4-[4-carbamoyl-5-(carbamoylamino)thiophen-2-yl]-3-fluorophenyl}prop-2-en-1-yl]-L-leucinate]
< 1 µM | CC(C)C[C@H](NCc1ccc(-c2cc(C(N)=O)c(NC(N)=O)s2)c(Cl)c1)C(=O)OC1CCCC1 [Example 6, Cyclopentyl N-{-4-[4-carbamoyl-5-(carbamoylamino)-2-thienyl]-3-chlorobenzyl}-L-leucinate]
< 1 µM | NC(=O)Nc1sc(-c2cccc(CN[C@H](C(=O)O)C3CCCCC3)c2)cc1C(N)=O [Example 59, (2S)-({3-[4-carbamoyl-5-(carbamoylamino)-2-thienyl]benzyl}amino)(cyclohexyl)acetic acid]
< 1 µM | CC(C)C[C@H](NC/C=C/c1ccc(-c2cc(C(N)=O)c(NC(N)=O)s2)c(F)c1)C(=O)O [Example 74, N-[(2E)-3-{4-[4-carbamoyl-5-(carbamoylamino)thiophen-2-yl]-3-fluorophenyl}prop-2-en-1-yl]-L-leucine]
< 1 µM | CC(C)C[C@H](NC/C=C/c1cccc(-c2cc(C(N)=O)c(NC(N)=O)s2)c1)C(=O)O [Example 93, N-[(2E)-3-{3-[4-carbamoyl-5-(carbamoylamino)-2-thienyl]phenyl}prop-2-en-1-yl]-L-leucine]
< 1 µM | CC(C)C[C@H](NCCc1cccc(-c2cc(C(N)=O)c(NC(N)=O)s2)c1)C(=O)O [Example 87, N-(2-{3-[4-carbamoyl-5-(carbamoylamino)-2-thienyl]phenyl}ethyl)-L-leucine]
< 1 µM | CC(C)C[C@H](NCCCOc1ccc(-c2cc(C(N)=O)c(NC(N)=O)s2)c(Cl)c1)C(=O)O [Example 66, N-(3-{4-[4-Carbamoyl-5-(carbamoylamino)-2-thienyl]-3-chlorophenoxy}propyl)-L-leucine]
< 1 µM | CC(C)C[C@@H](NC/C=C/c1ccc(-c2cc(C(N)=O)c(NC(N)=O)s2)cc1)C(=O)O [Example 84, N-[(2E)-3-{4-[4-carbamoyl-5-(carbamoylamino)-2-thienyl]phenyl}prop-2-en-1-yl]-D-leucine]
< 1 µM | NC(=O)Nc1sc(-c2ccc(CN[C@H](C(=O)O)c3ccccc3)cc2)cc1C(N)=O [Example 50, (2S)-({4-[4-carbamoyl-5-(carbamoylamino)-2-thienyl]benzyl}amino)(phenyl)acetic acid]
< 1 µM | NC(=O)Nc1sc(-c2ccc(CN[C@@H](C(=O)O)c3ccccc3)cc2)cc1C(N)=O [Example 53, (2R)-({-4-[4-Carbamoyl-5-(carbamoylamino)-2-thienyl]benzyl}amino)(phenyl)acetic acid]
< 1 µM | CC(C)C[C@H](NC/C=C/c1ccc(-c2cc(C(N)=O)c(NC(N)=O)s2)cc1Cl)C(=O)O [Example 72, N-[(2E)-3-{4-[4-carbamoyl-5-(carbamoylamino)thiophen-2-yl]-2-chlorophenyl}prop-2-en-1-yl]-L-leucine]
< 1 µM | CC(C)C[C@H](NCCCCCOc1ccc(-c2cc(C(N)=O)c(NC(N)=O)s2)cc1)C(=O)O [Example 67]
< 1 µM | NC(=O)Nc1sc(-c2cccc(CN[C@H](C(=O)O)c3ccccc3)c2)cc1C(N)=O [Example 58, (2S)-({3-[4-carbamoyl-5-(carbamoylamino)-2-thienyl]benzyl}amino)(phenyl)acetic acid]
< 1 µM | Cc1cc(/C=C/CN[C@@H](CC(C)C)C(=O)O)ccc1-c1cc(C(N)=O)c(NC(N)=O)s1 [Example 73, N-[(2E)-3-{4-[4-carbamoyl-5-(carbamoylamino)thiophen-2-yl]-3-methylphenyl}prop-2-en-1-yl]-L-leucine]
< 1 µM | CC(C)C[C@H](NC/C=C/c1cc(F)c(-c2cc(C(N)=O)c(NC(N)=O)s2)cc1F)C(=O)O [Example 77, N-[(2E)-3-{4-[4-carbamoyl-5-(carbamoylamino)thiophen-2-yl]-2,5-difluorophenyl}prop-2-en-1-yl]-L-leucine]

Tested on: THP-1 cells
Experiment: LPS-Stimulation of THP-1 Cells, TNF-α release
Type: cell-based
Conditions: Homo sapiens, LPS 1 μg/ml, 6 hrs, read-out: Inhibitor activity versus THP-1 TNFα release
Method: LPS-Stimulation of THP-1 Cells
THP-1 cells were plated in 100 μl at a density of 4×10^4 cells/well in V-bottomed 96 well tissue culture treated plates and incubated at 37° C. in 5% CO2 for 16 hrs. 2 hrs after the addition of the inhibitor in 100 μl of tissue culture media, the cells were stimulated with LPS (E. coli strain 005:85, Sigma) at a final concentration of 1 μg/ml and incubated at 37° C. in 5% CO2 for 6 hrs. TNF-α levels were measured from cell-free supernatants by sandwich ELISA (R&D Systems #QTA00B)

Compound | IC50
Cc1cc(-c2cc(C(N)=O)c(NC(N)=O)s2)ccc1/C=C/CN[C@@H](CC(C)C)C(=O)OC1CCCC1 [Example 30, Cyclopentyl N-[(2E)-3-{4-[4-carbamoyl-5-(carbamoylamino)thiophen-2-yl]-2-methylphenyl}prop-2-en-1-yl]-L-leucinate] | 1 to 5 µM
CC(C)C[C@H](NC/C=C/c1ccc(-c2cc(C(N)=O)c(NC(N)=O)s2)c(Cl)c1)C(=O)OC1CCCC1 [Example 35, Cyclopentyl N-[(2E)-3-{4-[4-carbamoyl-5-(carbamoylamino)thiophen-2-yl]-3-chlorophenyl}prop-2-en-1-yl]-L-leucinate] | 1 to 5 µM
CC(C)C[C@H](NCCc1ccc(-c2cc(C(N)=O)c(NC(N)=O)s2)cc1)C(=O)OC1CCCC1 [Example 16, Cyclopentyl N-(2-{4-[4-carbamoyl-5-(carbamoylamino)-2-thienyl]phenyl}ethyl)-L-leucinate] | 1 to 5 µM

The next lines start with the values.

IC50 | Compound
1 to 5 µM | CC(C)C[C@H](NC/C=C/c1ccc(-c2cc(C(N)=O)c(NC(N)=O)s2)c(F)c1)C(=O)OC1CCCC1 [Example 34, Cyclopentyl N-[(2E)-3-{4-[4-carbamoyl-5-(carbamoylamino)thiophen-2-yl]-3-fluorophenyl}prop-2-en-1-yl]-L-leucinate]
> 5 µM | CC(C)C[C@H](NCc1ccc(-c2cc(C(N)=O)c(NC(N)=O)s2)c(Cl)c1)C(=O)OC1CCCC1 [Example 6, Cyclopentyl N-{-4-[4-carbamoyl-5-(carbamoylamino)-2-thienyl]-3-chlorobenzyl}-L-leucinate]
